Results published in ChEMBL document CHEMBL1201862, “PubChem BioAssay data set” (2004).
Active and inactive are the calls of the source.

Key:
[1] = target: T1, Short transient receptor potential channel 4 (Mus musculus, UniProt Q9QUQ5); assay: mouse TRPC4 channel activators, dose response, cell-based, HEK293 TRPC4/mu-opioid, Fluo-4 calcium (AID 434937); format: functional
T1 sequence (Q9QUQ5 whole entry): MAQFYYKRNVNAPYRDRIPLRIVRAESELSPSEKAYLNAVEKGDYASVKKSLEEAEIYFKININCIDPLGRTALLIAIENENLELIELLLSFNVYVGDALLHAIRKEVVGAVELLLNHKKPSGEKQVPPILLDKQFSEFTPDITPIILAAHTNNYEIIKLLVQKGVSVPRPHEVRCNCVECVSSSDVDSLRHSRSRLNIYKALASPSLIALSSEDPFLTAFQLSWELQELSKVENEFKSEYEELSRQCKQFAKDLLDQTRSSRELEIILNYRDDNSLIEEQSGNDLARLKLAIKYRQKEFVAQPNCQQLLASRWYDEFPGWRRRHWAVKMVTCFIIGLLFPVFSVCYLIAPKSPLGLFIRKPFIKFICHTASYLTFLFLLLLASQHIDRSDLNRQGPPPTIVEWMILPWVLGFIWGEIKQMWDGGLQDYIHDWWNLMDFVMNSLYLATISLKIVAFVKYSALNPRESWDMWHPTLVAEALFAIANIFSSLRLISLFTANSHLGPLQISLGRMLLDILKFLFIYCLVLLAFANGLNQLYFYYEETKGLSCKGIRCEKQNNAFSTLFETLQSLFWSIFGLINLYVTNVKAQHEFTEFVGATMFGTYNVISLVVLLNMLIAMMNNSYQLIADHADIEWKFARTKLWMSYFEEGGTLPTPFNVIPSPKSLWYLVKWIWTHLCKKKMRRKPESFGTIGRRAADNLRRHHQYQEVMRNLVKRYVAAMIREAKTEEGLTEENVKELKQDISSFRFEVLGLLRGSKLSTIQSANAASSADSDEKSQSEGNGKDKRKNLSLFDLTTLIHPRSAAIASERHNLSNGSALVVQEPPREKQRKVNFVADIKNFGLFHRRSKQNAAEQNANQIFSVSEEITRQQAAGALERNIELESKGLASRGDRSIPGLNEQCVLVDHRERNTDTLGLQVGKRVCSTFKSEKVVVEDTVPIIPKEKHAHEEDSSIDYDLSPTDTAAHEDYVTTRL

[2] = target: Troponin, cardiac muscle (Homo sapiens, UniProt P19429+P45379+P63316); assay: Fluorescence-based biochemical high throughput dose response assay for activators of the calcium sensitivity of cardiac Regulated Thin Filaments (RTF). [Related pubchem assays (depositor defined):AID493008, AID493018, AID504382, AID504383]; format: protein-complex assay
[3] = test system: H4; assay: Luminescence Cell-Based Dose Response HTS to Identify Activators of 5'UTR Stem-Loop Driven Prion Protein mRNA Translation in H4 Neuroglioblastoma Cells. [Related pubchem assays: 1829 (Project Summary), 1814 (Primary HTS)]; format: functional; conditions: Homo sapiens
[4] = target: Nucleotide-binding oligomerization domain-containing protein 2 (Homo sapiens, UniProt Q9HC29); assay: NOD2 signaling inhibitors, cell-based, luminescence, uHTS, HEK293 (AID 1566); format: functional
[5] = test system: HEK293; assay: NOD2 signaling inhibitors in MDP-stimulated cells, cell-based, uHTS, luminescence (AID 2001); format: functional; conditions: Homo sapiens
[6] = target: T2, Heat shock factor protein 1 (Mus musculus, UniProt P38532); assay: inhibition of MG132-induced HSE-luciferase signal, confirmation, cell-based, NIH3T3, luminescence, dose retest (AID 2382); format: functional;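 note: NIH3T3 fibroblasts with HSF1-driven luciferase reporter stressed by proteasome inhibitor MG132; luminescence from HSF1-driven luciferase expression after 8 hours of MG132 stress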
T2 sequence (P38532 whole entry): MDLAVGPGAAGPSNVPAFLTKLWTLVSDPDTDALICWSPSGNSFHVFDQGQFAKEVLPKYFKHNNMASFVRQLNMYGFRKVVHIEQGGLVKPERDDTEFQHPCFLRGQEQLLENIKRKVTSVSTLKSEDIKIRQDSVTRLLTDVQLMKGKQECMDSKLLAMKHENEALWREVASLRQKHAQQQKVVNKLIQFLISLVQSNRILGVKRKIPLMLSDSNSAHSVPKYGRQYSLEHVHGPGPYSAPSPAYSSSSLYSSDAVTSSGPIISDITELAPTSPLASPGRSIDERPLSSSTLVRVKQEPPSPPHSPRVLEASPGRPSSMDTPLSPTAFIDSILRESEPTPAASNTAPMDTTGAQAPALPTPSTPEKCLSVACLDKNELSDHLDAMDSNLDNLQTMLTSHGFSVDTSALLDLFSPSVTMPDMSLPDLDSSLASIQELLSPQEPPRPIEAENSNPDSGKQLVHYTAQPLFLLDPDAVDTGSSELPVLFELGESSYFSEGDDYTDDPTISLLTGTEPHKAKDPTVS

[7] = test system: HEK293; assay: cells; format: functional, cell-based; conditions: Homo sapiens
[8] = test system: HEK293; assay: cells; format: functional, cell-based; conditions: Homo sapiens; remark: listed apart in the source
[9] = test system: HEK293; assay: cells; format: functional, cell-based; conditions: Homo sapiens; remark: listed apart in the source
[10] = test system: HEK293; assay: NOD1 signaling inhibitors, primary screen, cell-based, luminescence, uHTS (AID 1578); format: functional; conditions: Homo sapiens
[11] = target: DNA dC->dU-editing enzyme APOBEC-3A (Homo sapiens, UniProt P31941); assay: Dose Response confirmation of small molecule APOBEC3A DNA Deaminase Inhibitors via a fluorescence-based single-stranded DNA deaminase assay. [Related pubchem assays (depositor defined):AID493011, AID493024]; format: functional
[12] = target: T3, Long-chain-fatty-acid--AMP ligase FadD28 (Mycobacterium tuberculosis, UniProt P9WQ59); assay: Fluorescence polarization aasay to screen for inhibitors that compete for the binding of FadD28 to a bisubstrate Measured in Biochemical System Using Plate Reader - 2147-01_Inhibitor_Dose_CherryPick_Activity.; format: functional, Mycobacterium tuberculosis H37Rv
T3 sequence (P9WQ59 whole entry): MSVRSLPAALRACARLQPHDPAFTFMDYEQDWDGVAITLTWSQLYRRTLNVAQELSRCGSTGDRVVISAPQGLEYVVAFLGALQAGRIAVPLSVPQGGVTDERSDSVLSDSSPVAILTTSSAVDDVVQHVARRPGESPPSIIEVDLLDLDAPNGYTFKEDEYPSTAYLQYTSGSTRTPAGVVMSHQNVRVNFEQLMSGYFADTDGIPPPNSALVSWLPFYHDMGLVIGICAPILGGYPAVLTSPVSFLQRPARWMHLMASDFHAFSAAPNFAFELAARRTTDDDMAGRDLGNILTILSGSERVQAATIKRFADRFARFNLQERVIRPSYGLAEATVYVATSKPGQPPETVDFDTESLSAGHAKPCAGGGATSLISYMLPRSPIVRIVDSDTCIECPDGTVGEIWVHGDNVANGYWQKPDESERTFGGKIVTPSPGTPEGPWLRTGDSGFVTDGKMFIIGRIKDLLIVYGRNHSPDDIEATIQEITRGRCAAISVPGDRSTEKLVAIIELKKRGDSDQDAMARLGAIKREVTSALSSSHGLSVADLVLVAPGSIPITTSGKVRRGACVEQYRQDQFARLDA

[13] = target: DNA dC->dU-editing enzyme APOBEC-3G (Homo sapiens, UniProt Q9HC16); format: functional;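 note: Dose-response counterscreen measuring inhibition of APOBEC3G DNA deaminase activity, run while confirming APOBEC3A inhibitors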
[14] = target: Genome polyprotein (dengue virus type 2, UniProt P29990); assay: Dengue-2 NS5 methyltransferase inhibitors, primary screen, biochemical, confirmation dose response (AID 588689); format: functional
[15] = target: T4, Caspase-6 (Homo sapiens, UniProt P55212); assay: human caspase-6 inhibitors, dose response, biochemical, VEID-R110 fluorescence, cherry-pick (AID 720632)
T4 sequence (P55212 whole entry): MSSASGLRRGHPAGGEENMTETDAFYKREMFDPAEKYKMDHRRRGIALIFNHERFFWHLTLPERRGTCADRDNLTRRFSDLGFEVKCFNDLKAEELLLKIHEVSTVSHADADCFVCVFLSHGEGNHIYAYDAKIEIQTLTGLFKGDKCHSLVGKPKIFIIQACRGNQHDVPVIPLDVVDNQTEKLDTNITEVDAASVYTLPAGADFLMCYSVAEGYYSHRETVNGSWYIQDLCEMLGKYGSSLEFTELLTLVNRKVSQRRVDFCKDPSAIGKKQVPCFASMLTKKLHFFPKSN

[16] = test system: Streptococcus; assay: Group A Streptococcus viability loss, dose response, counter-screen for streptokinase expression inhibitor project, luminescence, BacTiterGlo (AID 1915); format: functional, organism-based;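 note: potency for reduction of bacterial viability or growth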
[17] = test system: Streptococcus sp. 'group A'; assay: growth inhibition of control SK(-) GAS strain, dose response, counter-screen for streptokinase expression inhibitor project, luminescence, kanamycin, BacTiterGlo, confirmation (AID 1900); format: functional, organism-based
[18] = cytotoxicity toward NIH3T3 fibroblasts, dose response, counter-screen, cell-based, ATP luminescence, mouse fibroblasts (AID 2010); format: functional;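 note: cells exposed to compound for about 90 hours before reading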
[19] = target: Beta-galactosidase (Escherichia coli, UniProt Q8VNN2); assay: beta-galactosidase enzyme inhibitors and activators, dose response, artefact control for CCR6 antagonist project, biochemical, E. coli enzyme, set 3 (AID 504712); format: functional
[20] = inhibitors of intracellular T. cruzi replication, confirmation, NIH3T3 host cells, beta-gal luminescence (AID 2044); format: functional, cell-based;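 note: intracellular parasites grown in NIH/3T3 mouse fibroblasts as host cells; luminescent beta-galactosidase reporter signal from transgenic T. cruzi replicating inside host cells; inhibitors lower the luminescence signal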
[21] = target: T5, Corticotropin-releasing factor receptor 2/Corticotropin-releasing factor-binding protein (Homo sapiens, UniProt P24387+Q13324); assay: activators of CRF receptor 2 with binding protein – uHTS hits, confirmation (AID 602473); format: functional; conditions: read-out: EC50_Mean
T5 sequence (Q13324 whole entry): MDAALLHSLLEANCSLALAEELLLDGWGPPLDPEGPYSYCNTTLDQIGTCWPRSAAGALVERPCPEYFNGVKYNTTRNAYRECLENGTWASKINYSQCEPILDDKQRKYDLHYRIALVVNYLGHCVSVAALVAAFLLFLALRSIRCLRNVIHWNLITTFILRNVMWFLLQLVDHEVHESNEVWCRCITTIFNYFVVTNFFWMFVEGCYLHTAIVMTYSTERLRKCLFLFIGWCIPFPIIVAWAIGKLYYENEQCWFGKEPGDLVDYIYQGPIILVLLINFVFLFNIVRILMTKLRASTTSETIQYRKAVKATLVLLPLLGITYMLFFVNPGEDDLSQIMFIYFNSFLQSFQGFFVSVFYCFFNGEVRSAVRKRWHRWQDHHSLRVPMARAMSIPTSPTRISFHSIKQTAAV
T5 sequence (P24387 whole entry): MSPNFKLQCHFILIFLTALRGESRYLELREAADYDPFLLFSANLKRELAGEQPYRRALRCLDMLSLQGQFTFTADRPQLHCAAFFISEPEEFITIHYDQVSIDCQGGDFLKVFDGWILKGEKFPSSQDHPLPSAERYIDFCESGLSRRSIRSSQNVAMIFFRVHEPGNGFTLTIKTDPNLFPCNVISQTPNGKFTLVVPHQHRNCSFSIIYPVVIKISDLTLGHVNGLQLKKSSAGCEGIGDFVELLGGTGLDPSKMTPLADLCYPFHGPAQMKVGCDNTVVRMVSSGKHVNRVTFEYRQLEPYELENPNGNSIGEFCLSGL

[22] = cytotoxicity in HEK-293T cells, dose response, cytotoxicity control for BCR NF-kB inhibitor project, luminescence, B-cell screen hits (AID 489021); format: functional, cell-based;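 note: HEK-293T cells carrying an NF-kB luciferase reporter; cells exposed to compound for about 14 hours before viability readout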
[23] = inhibitors of firefly luciferase expression or activity, dose response, H4 neuroglioma cells, luminescence (AID 1990); format: functional, cell-based
[24] = Luminescence Cell-Based Dose Response HTS to Identify Inhibitors of 5'UTR Stem-Loop Driven Prion Protein mRNA Translation in H4 Neuroglioblastoma Cells. [Related pubchem assays: 1827 (Project Summary), 1813 (Primary HTS)]; format: functional
[25] = inhibitors of SNCA 5'UTR-driven reporter translation, confirmation, H4 neuroglioma cells, luminescence (AID 1988); format: functional, cell-based

## CCN1CCN(c2ccc(S(=O)(=O)N3CCCCC3)cc2NC(=O)C(C)Oc2ccc(F)cc2)CC1 (configuration not stated)
[1]
  EC50: 10.6 µM (active)

## CC(COC(=O)c1ccccc1)(COC(=O)c1ccccc1)/[N+]([O-])=C/c1ccccc1
[2]
  EC50: > 71.5 µM (inactive)

## CCN1C(=O)/C(=C/N2CCc3ccccc32)SC1=S
[2]
  EC50: 5.4 µM (active)
[3]
  EC50: 4.21 µM (active)

## O=C(Nc1ccncc1)c1c(F)cccc1F
[4]
  EC50: 4.55 µM (active)
[5]
  IC50: 4.33 µM (active)
[6]
  EC50: 24.1 µM (active)
[7]
  IC50: > 20 µM (inactive)
[8]
  IC50: 3.91 µM (active)
[9]
  IC50: > 20 µM (inactive)
[10]
  EC50: 9.17 µM (active)

## COc1ccc(-c2cc(C(=O)NCC(c3ccccc3)N(C)C)c3ccccc3n2)cc1OC (configuration not stated)
[1]
  EC50: 10.6 µM (active)

## O=C(CCSc1ccccc1)N1CCN(C(=O)c2ccco2)CC1
[2]
  EC50: > 71.5 µM (inactive)

## C=CCOc1ccc(C(c2c(C(=O)O)[nH]c3ccccc23)c2c(C(=O)O)[nH]c3ccccc23)cc1
[11]
  IC50: 21.5 µM (active)
[12]
  AC50: 12 µM (active)
[13]
  IC50: 28.8 µM (active)
[14]
  IC50: 22 µM (active)
[15]
  AC50: 14.2 µM (active)

## COc1ccc(Cl)cc1/C=C/c1ccc2cccc(O)c2n1
[4]
  EC50: > 20 µM (inactive)
[5]
  IC50: 4.73 µM (inactive)
[16]
  EC50: 3.58 µM (active)
[7]
  IC50: > 20 µM (inactive)
[8]
  IC50: 14 µM (active)
[9]
  IC50: > 20 µM (inactive)
[17]
  EC50: 0.786 µM (active)
[10]
  EC50: 5.5 µM (active)

## O=C1c2cccc3c([N+](=O)[O-])ccc(c23)C(=O)N1Cc1cccnc1
[18]
  EC50: 9.5 µM (active)
[19]
  IC50: 16.8 µM (active)
[20]
  EC50: 3.67 µM (active)

## Cc1cc(C)cc(NC(=O)c2nnn(Cc3cc(C)ccc3C)c2N)c1
[21]
  EC50: 8.37 µM (active)
[22]
  IC50: > 80 µM (inactive)
[23]
  EC50: 13.6 µM (active)
[24]
  EC50: 39.8 µM (active)
[25]
  EC50: 18.2 µM (active)

## COC(=O)C1=C(C(=O)OC)C(C(=O)OC)C(C(=O)OC)C(C(=O)OC)(C(=O)OC)C(C(=O)OC)=C1C(=O)OC (configuration not stated)
[19]
  IC50: > 66.6 µM (inactive)

## Cc1ccc(CNC(=O)CCNC(=O)c2ccc([N+](=O)[O-])cc2)cc1
[11]
  IC50: 6.67 µM (active)
[13]
  IC50: 10.9 µM (active)
